{"source": "patent US20150105252A1", "about": "“SUBSTITUTED PYRAZOLES AS HERBICIDES” (E I DU PONT DE NEMOURS AND COMPANY, priority 2013, published 2015)", "test_in_all_cases": "Test C postemergence", "key": {"chickweed": {"tested_on": "chickweed", "format": "in vivo, Stellaria media", "from_the_text": "(§1) Seeds of plant species selected from blackgrass (Alopecurus myosuroides), ryegrass, Italian (Italian ryegrass, Lolium multiflorum), wheat (winter wheat, Triticum aestivum), galium (catchweed bedstraw, Galium aparine), corn (Zea mays), crabgrass, large (large crabgrass, Digitaria sanguinalis), foxtail, giant (giant foxtail, Setaria faberii), johnsongrass (Sorghum halepense), lambsquarters (Chenopodium album), morningglory (Ipomoea coccinea), nutsedge, yellow (yellow nutsedge, Cyperus esculentus), pigweed (redroot pigweed, Amaranthus retroflexus), ragweed (common ragweed, Ambrosia elation), soybean (Glycine max), barnyardgrass (Echinochloa crus-galli), oilseed rape (Brassica napus), waterhemp (common waterhemp, Amaranthus rudis), oat, wild (wild oat, Avena fatua), kochia (Kochia scoparia), Surinam grass (Brachiaria decumbens), foxtail, green (green foxtail, Setaria viridis), goosegrass (Eleusine indica), bromegrass, downy (downy bromegrass, Bromus tectorum), nightshade (eastern black nightshade, Solanum ptycanthum), cocklebur (common cocklebur, Xanthium strumarium), cupgrass, woolly (woolly cupgrass, Eriochloa villosa), bermudagrass (Cynodon dactylon), sunflower, (common oilseed sunflower, Helianthus annuus), Russian thistle (Salsola kali), and velvetleaf (Abutilon theophrasti) were planted into a blend of loam soil and sand and treated preemergence with test chemicals formulated in a non-phytotoxic solvent mixture which included a surfactant.\n(§2) At the same time, plants selected from these crop and weed species and also chickweed (common chickweed, Stellaria media), canarygrass (littleseed canarygrass, Phalaris minor), and deadnettle (henbit deadnettle, Lamium amplexicaule), were planted in pots containing Redi-Earth® planting medium (Scotts Company, 14111 Scottslawn Road, Marysville, Ohio 43041) comprising spaghnum peat moss, vermiculite, wetting agent and starter nutrients and treated with postemergence applications of test chemicals formulated in the same manner. Plants ranged in height from 2 to 18 cm (1- to 4-leaf stage) for postemergence treatments. Treated plants and controls were maintained in a greenhouse for 13 to 15 days, after which time all species were compared to controls and visually evaluated. Plant response ratings, summarized in Table C, are based on a scale of 0 to 100 where 0 is no effect and 100 is complete control. A dash (-) response means no test result."}, "corn": {"tested_on": "corn", "format": "in vivo, Zea mays", "from_the_text": "as §1, §2"}, "soybean": {"tested_on": "soybean", "format": "in vivo, Glycine max", "from_the_text": "as §1, §2"}, "oilseed rape": {"tested_on": "oilseed rape", "format": "in vivo, Brassica napus", "from_the_text": "as §1, §2"}, "morningglory": {"tested_on": "morningglory", "format": "in vivo, Ipomoea coccinea", "from_the_text": "as §1, §2"}, "blackgrass": {"tested_on": "blackgrass", "format": "in vivo, Alopecurus myosuroides", "from_the_text": "as §1, §2"}, "kochia": {"tested_on": "kochia", "format": "in vivo, Kochia scoparia", "from_the_text": "as §1, §2"}, "ragweed": {"tested_on": "ragweed", "format": "in vivo, Ambrosia elation", "from_the_text": "as §1, §2"}, "crabgrass, large": {"tested_on": "crabgrass, large", "format": "in vivo, Digitaria sanguinalis", "from_the_text": "as §1, §2"}, "galium": {"tested_on": "galium", "format": "in vivo, Galium aparine", "details": "for Plant response rating, Galium: postemergence", "from_the_text": "as §1, §2"}, "johnsongrass": {"tested_on": "johnsongrass", "format": "in vivo, Sorghum halepense", "from_the_text": "as §1, §2"}, "pigweed": {"tested_on": "pigweed", "format": "in vivo, Amaranthus retroflexus", "from_the_text": "as §1, §2"}, "oat, wild": {"tested_on": "oat, wild", "format": "in vivo, Avena fatua", "from_the_text": "as §1, §2"}, "velvetleaf": {"tested_on": "velvetleaf", "format": "in vivo, Abutilon theophrasti", "from_the_text": "as §1, §2"}, "waterhemp": {"tested_on": "waterhemp", "format": "in vivo, Amaranthus rudis", "from_the_text": "as §1, §2"}, "nutsedge, yellow": {"tested_on": "nutsedge, yellow", "format": "in vivo, Cyperus esculentus", "from_the_text": "as §1, §2"}, "foxtail, giant": {"tested_on": "foxtail, giant", "format": "in vivo, Setaria faberii", "from_the_text": "as §1, §2"}, "ryegrass, Italian": {"tested_on": "ryegrass, Italian", "format": "in vivo, Lolium multiflorum", "from_the_text": "as §1, §2"}, "[1]": {"details": "Postemergence, 31 g ai/ha, visually evaluated after 13 to 15 days"}, "[2]": {"details": "postemergence, 62 g ai/ha, scale 0 to 100"}, "[3]": {"details": "postemergence, 250 g ai/ha, scale 0 to 100 (0 no effect, 100 complete control)"}, "[4]": {"details": "postemergence, 125 g ai/ha, scale 0 to 100, 0 no effect, 100 complete control"}}, "data": [{"compound": "CCc1cc(C(=O)NCC(F)(F)F)nn1Cc1ccnc(C(F)(F)F)c1", "note": "[Compound 78, 5-ethyl-N-(2,2,2-trifluoroethyl)-1-[[(2-trifluoromethyl)-4-pyridinyl]methyl]-1H-pyrazole-3-carboxamide]", "values": [{"measurement": "Plant response rating (scale of 0 to 100 where 0 is no effect and 100 is complete control), Chickweed", "setting": "chickweed; [1]", "result": 65}, {"measurement": "Chickweed plant response rating", "setting": "chickweed; [2]", "result": 80}, {"measurement": "Plant response rating, Chickweed", "setting": "chickweed; [3]", "result": 85}, {"measurement": "Plant response rating, Chickweed", "setting": "chickweed; [4]", "result": 80}, {"measurement": "Plant response rating (scale of 0 to 100 where 0 is no effect and 100 is complete control), Corn", "setting": "corn; [1]", "result": 10}, {"measurement": "Corn plant response rating", "setting": "corn; [2]", "result": 15}, {"measurement": "Plant response rating, Corn", "setting": "corn; [3]", "result": 80}, {"measurement": "Plant response rating, Corn", "setting": "corn; [4]", "result": 25}, {"measurement": "Plant response rating (scale of 0 to 100 where 0 is no effect and 100 is complete control), Soybean", "setting": "soybean; [1]", "result": 50}, {"measurement": "Soybean plant response rating", "setting": "soybean; [2]", "result": 80}, {"measurement": "Plant response rating, Soybean", "setting": "soybean; [3]", "result": 85}, {"measurement": "Plant response rating, Soybean", "setting": "soybean; [4]", "result": 80}, {"measurement": "Plant response rating (scale of 0 to 100 where 0 is no effect and 100 is complete control), Oilseed Rape", "setting": "oilseed rape; [1]", "result": 45}, {"measurement": "Oilseed Rape plant response rating", "setting": "oilseed rape; [2]", "result": 45}, {"measurement": "Plant response rating, Oilseed Rape", "setting": "oilseed rape; [3]", "result": 55}, {"measurement": "Plant response rating, Oilseed Rape", "setting": "oilseed rape; [4]", "result": 50}, {"measurement": "Plant response rating (scale of 0 to 100 where 0 is no effect and 100 is complete control), Morningglory", "setting": "morningglory; [1]", "result": 70}, {"measurement": "Morningglory plant response rating", "setting": "morningglory; [2]", "result": 80}, {"measurement": "Plant response rating, Morningglory", "setting": "morningglory; [3]", "result": 100}, {"measurement": "Plant response rating, Morningglory", "setting": "morningglory; [4]", "result": 90}, {"measurement": "Plant response rating (scale of 0 to 100 where 0 is no effect and 100 is complete control), Blackgrass", "setting": "blackgrass; [1]", "result": 5}, {"measurement": "Blackgrass plant response rating", "setting": "blackgrass; [2]", "result": 5}, {"measurement": "Plant response rating, Blackgrass", "setting": "blackgrass; [3]", "result": 50}, {"measurement": "Plant response rating, Blackgrass", "setting": "blackgrass; [4]", "result": 10}, {"measurement": "Plant response rating (scale of 0 to 100 where 0 is no effect and 100 is complete control), Kochia", "setting": "kochia; [1]", "result": 85}, {"measurement": "Kochia plant response rating", "setting": "kochia; [2]", "result": 90}, {"measurement": "Plant response rating, Kochia", "setting": "kochia; [3]", "result": 90}, {"measurement": "Plant response rating, Kochia", "setting": "kochia; [4]", "result": 90}, {"measurement": "Plant response rating (scale of 0 to 100 where 0 is no effect and 100 is complete control), Ragweed", "setting": "ragweed; [1]", "result": 35}, {"measurement": "Ragweed plant response rating", "setting": "ragweed; [2]", "result": 75}, {"measurement": "Plant response rating, Ragweed", "setting": "ragweed; [3]", "result": 95}, {"measurement": "Plant response rating, Ragweed", "setting": "ragweed; [4]", "result": 85}, {"measurement": "Plant response rating (scale of 0 to 100 where 0 is no effect and 100 is complete control), Crabgrass, Large", "setting": "crabgrass, large; [1]", "result": 15}, {"measurement": "Crabgrass, Large plant response rating", "setting": "crabgrass, large; [2]", "result": 25}, {"measurement": "Plant response rating, Crabgrass, Large", "setting": "crabgrass, large; [3]", "result": 90}, {"measurement": "Plant response rating, Crabgrass, Large", "setting": "crabgrass, large; [4]", "result": 80}, {"measurement": "Plant response rating (scale of 0 to 100 where 0 is no effect and 100 is complete control), Galium", "setting": "galium; [1]", "result": 80}, {"measurement": "Plant response rating, Galium", "setting": "galium; 250 g ai/ha, scale 0 to 100 (0 no effect, 100 complete control)", "result": 80}, {"measurement": "Plant response rating, Galium", "setting": "galium; 125 g ai/ha, scale 0 to 100, 0 no effect, 100 complete control", "result": 80}, {"measurement": "Plant response rating (scale of 0 to 100 where 0 is no effect and 100 is complete control), Johnsongrass", "setting": "johnsongrass; [1]", "result": 0}, {"measurement": "Johnsongrass plant response rating", "setting": "johnsongrass; [2]", "result": 5}, {"measurement": "Plant response rating, Johnsongrass", "setting": "johnsongrass; [3]", "result": 75}, {"measurement": "Plant response rating, Johnsongrass", "setting": "johnsongrass; [4]", "result": 55}, {"measurement": "Plant response rating (scale of 0 to 100 where 0 is no effect and 100 is complete control), Pigweed", "setting": "pigweed; [1]", "result": 40}, {"measurement": "Pigweed plant response rating", "setting": "pigweed; [2]", "result": 75}, {"measurement": "Plant response rating, Pigweed", "setting": "pigweed; [3]", "result": 98}, {"measurement": "Plant response rating, Pigweed", "setting": "pigweed; [4]", "result": 90}, {"measurement": "Plant response rating (scale of 0 to 100 where 0 is no effect and 100 is complete control), Oat, Wild", "setting": "oat, wild; [1]", "result": 5}, {"measurement": "Oat, Wild plant response rating", "setting": "oat, wild; [2]", "result": 5}, {"measurement": "Plant response rating, Oat, Wild", "setting": "oat, wild; [3]", "result": 30}, {"measurement": "Plant response rating, Oat, Wild", "setting": "oat, wild; [4]", "result": 10}, {"measurement": "Plant response rating (scale of 0 to 100 where 0 is no effect and 100 is complete control), Velvetleaf", "setting": "velvetleaf; [1]", "result": 15}, {"measurement": "Velvetleaf plant response rating", "setting": "velvetleaf; [2]", "result": 20}, {"measurement": "Plant response rating, Velvetleaf", "setting": "velvetleaf; [3]", "result": 75}, {"measurement": "Plant response rating, Velvetleaf", "setting": "velvetleaf; [4]", "result": 50}, {"measurement": "Plant response rating (scale of 0 to 100 where 0 is no effect and 100 is complete control), Waterhemp", "setting": "waterhemp; [1]", "result": 50}, {"measurement": "Waterhemp plant response rating", "setting": "waterhemp; [2]", "result": 70}, {"measurement": "Plant response rating, Waterhemp", "setting": "waterhemp; [3]", "result": 95}, {"measurement": "Plant response rating, Waterhemp", "setting": "waterhemp; [4]", "result": 80}, {"measurement": "Plant response rating (scale of 0 to 100 where 0 is no effect and 100 is complete control), Nutsedge, Yellow", "setting": "nutsedge, yellow; [1]", "result": 5}, {"measurement": "Nutsedge, Yellow plant response rating", "setting": "nutsedge, yellow; [2]", "result": 5}, {"measurement": "Plant response rating, Nutsedge, Yellow", "setting": "nutsedge, yellow; [3]", "result": 15}, {"measurement": "Plant response rating, Nutsedge, Yellow", "setting": "nutsedge, yellow; [4]", "result": 10}, {"measurement": "Plant response rating (scale of 0 to 100 where 0 is no effect and 100 is complete control), Foxtail, Giant", "setting": "foxtail, giant; [1]", "result": 15}, {"measurement": "Foxtail, Giant plant response rating", "setting": "foxtail, giant; [2]", "result": 20}, {"measurement": "Plant response rating, Foxtail, Giant", "setting": "foxtail, giant; [3]", "result": 95}, {"measurement": "Plant response rating, Foxtail, Giant", "setting": "foxtail, giant; [4]", "result": 50}, {"measurement": "Plant response rating (scale of 0 to 100 where 0 is no effect and 100 is complete control), Ryegrass, Italian", "setting": "ryegrass, Italian; [1]", "result": 5}, {"measurement": "Ryegrass, Italian plant response rating", "setting": "ryegrass, Italian; [2]", "result": 5}, {"measurement": "Plant response rating, Ryegrass, Italian", "setting": "ryegrass, Italian; [3]", "result": 35}, {"measurement": "Plant response rating, Ryegrass, Italian", "setting": "ryegrass, Italian; [4]", "result": 5}]}]}
